# Experiments:
# rat lens organ culture = assay: Glucose-induced toxicity in rat lens organ culture (RLCE); format: cell-based; settings: 50 mM glucose, 4 mM MSM, 0.5 mM EDTA
# Experimental: Animals. Male Sprague-Dawley rats weighing 200-250 g were obtained from Central Animal Care Services at the University of Texas Medical Branch. The NIH guidelines and ARVO statement for the Use of Animals in Ophthalmic and Vision Research were strictly followed for the welfare of the animals. Rats were sacrificed with using 100% carbon dioxide at a low flow rate (25-30% of the volume of the cage per minute) with two rats in a cage. After the rats stopped breathing for about 2 minutes, the eyeballs were removed. […] Experimental Procedure. 1. Sacrificed four rats, removed the eyeballs as soon as possible and put them into a tube containing PBS with 0.1% gentamicin. 2. Dissected the lenses immediately and washed with 1% penicillin/streptomycin in sterile with PBS. 3. Transferred each lens to a well of a 12-well plate (2 ml of medium per well, i.e., per lens). Each treatment was performed in 2 wells. The lenses were cultured in medium 199 containing 0.1% gentamicin at 37° C. in a 5% CO2 humidified atmosphere. Reagents as described above were added to three groups of two wells to give the following three treatments: • 50 mM glucose • 50 mM glucose+4 mM MSM • 50 mM glucose+4 mM MSM+0.5 mM EDTA One group of two wells was left untreated as a control. […] Photographs were taken using a Multidimensional Imaging System, and the level of light transparency through the lenses was determined
# [1] = test system: Human lens epithelial cells (HLEC); assay: Viability of human lens epithelial cells subjected to glucose-induced toxicity (Trypan Blue); format: cell-based; settings: 50 mM glucose; 4 mM MSM, 0.5 mM EDTA; 16 hrs; glucose alone decreased viability by 30%
# Experimental: Cell Culture and Treatment. Human lens epithelial […] extended life span were cultured in DMEM medium containing 0.1% gentamicin and supplemented with 20% fetal bovine serum at 37° C. in a 5% CO2-humidified atmosphere. 1.0×10^5 […] (Passage 5) were seeded in 12-well plate overnight prior to the addition of glucose, MSM or MSM/EDTA. The wells were divided into six groups of two wells. Cell viability. Cell survival was determined by Trypan Blue staining and counted with a hemocytometer. Dead cells stain blue, while live cells exclude Trypan Blue. Cell viability is represented as a percentage corresponding to the number of live cells divided by the total cells. […] DMEM+20% FBS+0.1% gentamicin • 400 mM MSM: 376 mg/10 ml PBS for stock • 50 mM EDTA (Tetrasodium Salt): 190 mg/10 ml PBS for stock, pH 7.2 • 5 M Glucose: 1800 mg/10 ml of dd H2O Experimental Procedure. 1. Seeded 0.5×10^5/ml of HLEC (Passage 5) into three 12-well plates, then incubated at 37° C. overnight. 2. Changed medium to 2% FBS DMEM medium. 3. […] They were harvested with 0.25% Trypsin-EDTA and cell viability was determined with Trypan-Blue.
# [2] = at 79° F.; cited from earlier work
smiles,measurement,setting,value
"CS(C)(=O)=O [MSM, methylsulfonylmethane]","lens opacification by glucose (photographs, FIG. 2)",rat lens organ culture; seven days of culture,mitigated lens opacification
same,"light transmission through the lens, relative to the untreated control (FIG. 3)","rat lens organ culture; seven days, glucose alone 45%",68%
same,percent cell viability (FIG. 6),[1],increased the percent cell viability
same,water solubility,[2],34 % w/v

# Reference: patent US20100069335A1, “Prevention and Treatment of Ophthalmic Complications of Diabetes” (priority 2005, published 2010)
